The results in this text go back to patent US11964990B2, “1,3,4,7-tetrahydro-2H-pyrrolo[3′,2′:5,6]pyrido[2,3-b][1,4]oxazepine bcl-2 inhibitors” (AbbVie Inc., priority 2022, dated 2024).

The subject of one assay is RS4;11 cells. The assay is described as follows: Cell viability assay (CellTiter-Glo) in RS4;11 cell line. In kind it is cell-based. The conditions noted are these: 24 hours, 10% Human Serum, 50% decrease in cell viability. In a few lines: (§1)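 RS4;11 or Molt-4 cells (3000 per well) in RPMI 1640 with 10% human serum treated with compound for 24 h, 5% CO2. Viability measured by CellTiter-Glo as percent of control; EC50 from sigmoidal dose-response curves.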
(In general: ATP-based viability assays read luminescence as a measure of living cells.)

A further assay concerns Molt-4 cells. The assay is described as follows: Cell viability counter screen assay (CellTiter-Glo) in Molt-4 cells. In kind it is cell-based. The conditions noted are these: 24 hours, 10% Human Serum, 50% decrease in cell viability. The method in brief:
as §1

Consider `C[C@H]1CC[C@H](CNc2ccc(S(=O)(=O)NC(=O)c3ccc(N4CCN5CC6=C(c7ccc(Cl)cc7)CC(C)(C)C[C@H]6OCCCOC[C@@H]5C4)cc3N3CCCOc4nc5[nH]ccc5cc43)cc2[N+](=O)[O-])OC1` [Example 23, 4-((4aS,10aR)-14-(4-chlorophenyl)-12,12-dimethyl-1,2,4a,5,8,9,10a,11,13,15-decahydro-7H,12H-benzo[f]pyrazino[2,1-c][1,8]dioxa[4]azacycloundecin-3(4H)-yl)-2-(3,4-dihydro-2H-pyrrolo[3′,2′:5,6]pyrido[2,3-h][1,4]oxazepin-1(7H)-yl)-N-((4-((((2R,5S)-5-methyltetrahydro-2H-pyran-2-yl)methyl)amino)-3-nitrophenyl)sulfonyl)benzamide], for which the EC50 was 5.29 nM in the assay with RS4;11 cells and above 10000 nM with Molt-4 cells.

On to `CO[C@H]1C[C@@H](CNc2ccc(S(=O)(=O)NC(=O)c3ccc(N4CCN5CC6=C(c7ccc(Cl)cc7)CC(C)(C)C[C@H]6OCCCOC[C@@H]5C4)cc3N3CCCOc4nc5[nH]ccc5cc43)cc2[N+](=O)[O-])C1` [Example 24], for which the EC50 in the assay with RS4;11 cells was 4.9 nM; in the assay on Molt-4 cells, above 10000 nM.

In the case of `COC1(CNc2ccc(S(=O)(=O)NC(=O)c3ccc(N4CCN5CC6=C(c7ccc(Cl)cc7)CC(C)(C)C[C@H]6OCCCOC[C@@H]5C4)cc3N3CCCOc4nc5[nH]ccc5cc43)cc2[N+](=O)[O-])CCOCC1` [Example 26, 4-((4aS,10aR)-14-(4-chlorophenyl)-12,12-dimethyl-1,2,4a,5,8,9,10a,11,13,15-decahydro-7H,12H-benzo[f]pyrazino[2,1-c][1,8]dioxa[4]azacycloundecin-3(4H)-yl)-2-(3,4-dihydro-2H-pyrrolo[3′,2′:5,6]pyrido[2,3-b][1,4]oxazepin-1(7H)-yl)-N-((4-(((4-methoxytetrahydro-2H-pyran-4-yl)methyl)amino)-3-nitrophenyl)sulfonyl)benzamide], the EC50 with RS4;11 cells is 4.38 nM; in the assay with Molt-4 cells, above 10000 nM.

For the molecule `CC1(C)CC(c2ccc(Cl)cc2)=C2CN3CCN(c4ccc(C(=O)NS(=O)(=O)c5ccc(NC[C@@H]6CC[C@@H](O)CO6)c([N+](=O)[O-])c5)c(N5CCCOc6nc7[nH]ccc7cc65)c4)C[C@H]3COCCCO[C@@H]2C1` [Example 27, 4-((4aS,10aR)-14-(4-chlorophenyl)-12,12-dimethyl-1,2,4a,5,8,9,10a,11,13,15-decahydro-7H,12H-benzo[f]pyrazino[2,1-c][1,8]dioxa[4]azacycloundecin-3(4H)-yl)-2-(3,4-dihydro-2H-pyrrolo[3′,2′:5,6]pyrido[2,3-h][1,4]oxazepin-1(7H)-yl)-N-((4-((((2S,5R)-5-hydroxytetrahydro-2H-pyran-2-yl)methyl)amino)-3-nitrophenyl)sulfonyl)benzamide], the EC50 in the assay on RS4;11 cells is 0.329 nM; in the assay with Molt-4 cells, 535 nM.

Turning to `CC1(C)CC(c2ccc(Cl)cc2)=C2CN3CCN(c4ccc(C(=O)NS(=O)(=O)c5ccc(NC[C@H]6CC[C@H](N7CCOCC7)CC6)c([N+](=O)[O-])c5)c(N5CCCOc6nc7[nH]ccc7cc65)c4)C[C@H]3COCCCO[C@@H]2C1` [Example 28, 4-((4aS,10aR)-14-(4-chlorophenyl)-12,12-dimethyl-1,2,4a,5,8,9,10a,11,13,15-decahydro-7H,12H-benzo[f]pyrazino[2,1-c][1,8]dioxa[4]azacycloundecin-3(4H)-yl)-2-(3,4-dihydro-2H-pyrrolo[3′,2′:5,6]pyrido[2,3-h][1,4]oxazepin-1(7H)-yl)-N-((4-((((1r,4r)-4-morpholinocyclohexyl)methyl)amino)-3-nitrophenyl)sulfonyl)benzamide], the EC50 was 0.862 nM with RS4;11 cells and 274 nM in the assay with Molt-4 cells.

Take `COC1CO[C@H](CNc2ccc(S(=O)(=O)NC(=O)c3ccc(N4CCN5CC6=C(c7ccc(Cl)cc7)CC(C)(C)C[C@H]6OCCCOC[C@@H]5C4)cc3N3CCCOc4nc5[nH]ccc5cc43)cc2[N+](=O)[O-])C1` (stereo partly drawn) [Example 29, 4-((4aS,10aR)-14-(4-chlorophenyl)-12,12-dimethyl-1,2,4a,5,8,9,10a,11,13,15-decahydro-7H,12H-benzo[f]pyrazino[2,1-c][1,8]dioxa[4]azacycloundecin-3(4H)-yl)-2-(3,4-dihydro-2H-pyrrolo[3′,2′:5,6]pyrido[2,3-b][1,4]oxazepin-1(7H)-yl)-N-((4-((((2S)-4-methoxytetrahydrofuran-2-yl)methyl)amino)-3-nitrophenyl)sulfonyl)benzamide]: the EC50 worked out at 1.97 nM in the assay with RS4;11 cells and 1890 nM in the assay on Molt-4 cells.

Turning to `CO[C@H]1C[C@H](Nc2ccc(S(=O)(=O)NC(=O)c3ccc(N4CCN5CC6=C(c7ccc(Cl)cc7)CC(C)(C)C[C@H]6OCCCOC[C@@H]5C4)cc3N3CCCOc4nc5[nH]ccc5cc43)cc2[N+](=O)[O-])C1` [Example 30, 4-((4aS,10aR)-14-(4-chlorophenyl)-12,12-dimethyl-1,2,4a,5,8,9,10a,11,13,15-decahydro-7H,12H-benzo[f]pyrazino[2,1-c][1,8]dioxa[4]azacycloundecin-3(4H)-yl)-2-(3,4-dihydro-2H-pyrrolo[3′,2′:5,6]pyrido[2,3-b][1,4]oxazepin-1(7H)-yl)-N-((4-(((1r,3r)-3-methoxycyclobutyl)amino)-3-nitrophenyl)sulfonyl)benzamide], the EC50 with RS4;11 cells was 4.1 nM; with Molt-4 cells, above 10000 nM.

Turning to `CN1CCC(Nc2ccc(S(=O)(=O)NC(=O)c3ccc(N4CCN5CC6=C(c7ccc(Cl)cc7)CC(C)(C)C[C@H]6OCCCOC[C@@H]5C4)cc3N3CCCOc4nc5[nH]ccc5cc43)cc2[N+](=O)[O-])CC1` [Example 31, 4-((4aS,10aR)-14-(4-chlorophenyl)-12,12-dimethyl-1,2,4a,5,8,9,10a,11,13,15-decahydro-7H,12H-benzo[f]pyrazino[2,1-c][1,8]dioxa[4]azacycloundecin-3(4H)-yl)-2-(3,4-dihydro-2H-pyrrolo[3′,2′:5,6]pyrido[2,3-b][1,4]oxazepin-1(7H)-yl)-N-((4-((1-methylpiperidin-4-yl)amino)-3-nitrophenyl)sulfonyl)benzamide], the EC50 in the assay on RS4;11 cells was found to be 3.24 nM; in the assay on Molt-4 cells, 1220 nM.

Consider `CC1(C)CC(c2ccc(Cl)cc2)=C2CN3CCN(c4ccc(C(=O)NS(=O)(=O)c5ccc(NC[C@H]6CC[C@](C)(O)CC6)c([N+](=O)[O-])c5)c(N5CCCOc6nc7[nH]ccc7cc65)c4)C[C@H]3COCCCO[C@@H]2C1` [Example 32, 4-((4aS,10aR)-14-(4-chlorophenyl)-12,12-dimethyl-1,2,4a,5,8,9,10a,11,13,15-decahydro-7H,12H-benzo[f]pyrazino[2,1-c][1,8]dioxa[4]azacycloundecin-3(4H)-yl)-2-(3,4-dihydro-2H-pyrrolo[3′,2′:5,6]pyrido[2,3-b][1,4]oxazepin-1(7H)-yl)-N-((4-((((1r,4r)-4-hydroxy-4-methylcyclohexyl)methyl)amino)-3-nitrophenyl)sulfonyl)benzamide], for which the EC50 with RS4;11 cells amounted to 1.67 nM; with Molt-4 cells, 9570 nM.

On to `CO[C@H]1CC[C@H](COc2ccc(S(=O)(=O)NC(=O)c3ccc(N4CCN5CC6=C(c7ccc(Cl)cc7)CC(C)(C)C[C@H]6OCCCOC[C@@H]5C4)cc3N3CCCOc4nc5[nH]ccc5cc43)cc2[N+](=O)[O-])OC1` [Example 33, 4-((4aS,10aR)-14-(4-chlorophenyl)-12,12-dimethyl-1,2,4a,5,8,9,10a,11,13,15-decahydro-7H,12H-benzo[f]pyrazino[2,1-c][1,8]dioxa[4]azacycloundecin-3(4H)-yl)-2-(3,4-dihydro-2H-pyrrolo[3′,2′:5,6]pyrido[2,3-b][1,4]oxazepin-1(7H)-yl)-N-((4-(((2R,5S)-5-methoxytetrahydro-2H-pyran-2-yl)methoxy)-3-nitrophenyl)sulfonyl)benzamide], for which the results for the EC50 in the assay on RS4;11 cells and in the assay on Molt-4 cells were 3.49 nM and 6080 nM, respectively.

As for `CO[C@H]1CC[C@H](CNc2ccc(S(=O)(=O)NC(=O)c3ccc(N4CCN5CC6=C(c7ccc(Cl)cc7)CC(C)(C)C[C@H]6OCCCOC[C@@H]5C4)cc3N3CCCOc4nc5[nH]ccc5cc43)cc2Cl)OC1` [Example 34, N-((3-chloro-4-((((2R,5S)-5-methoxytetrahydro-2H-pyran-2-yl)methyl)amino)phenyl)sulfonyl)-4-((4aS,10aR)-14-(4-chlorophenyl)-12,12-dimethyl-1,2,4a,5,8,9,10a,11,13,15-decahydro-7H,12H-benzo[f]pyrazino[2,1-c][1,8]dioxa[4]azacycloundecin-3(4H)-yl)-2-(3,4-dihydro-2H-pyrrolo[3′,2′:5,6]pyrido[2,3-b][1,4]oxazepin-1(7H)-yl)benzamide], the EC50 in the assay on RS4;11 cells was 57.6 nM; with Molt-4 cells, above 10000 nM.

Turning to `COCCO[C@H]1CC[C@H](CNc2ccc(S(=O)(=O)NC(=O)c3ccc(N4CCN5CC6=C(c7ccc(Cl)cc7)CC(C)(C)C[C@H]6OCCCOC[C@@H]5C4)cc3N3CCCOc4nc5[nH]ccc5cc43)cc2[N+](=O)[O-])OC1` [Example 35, 4-((4aS,10aR)-14-(4-chlorophenyl)-12,12-dimethyl-1,2,4a,5,8,9,10a,11,13,15-decahydro-7H,12H-benzo[f]pyrazino[2,1-c][1,8]dioxa[4]azacycloundecin-3(4H)-yl)-2-(3,4-dihydro-2H-pyrrolo[3′,2′:5,6]pyrido[2,3-b][1,4]oxazepin-1(7H)-yl)-N-((4-((((2R,5S)-5-(2-methoxyethoxy)tetrahydro-2H-pyran-2-yl)methyl)amino)-3-nitrophenyl)sulfonyl)benzamide], the EC50 is 1.47 nM with RS4;11 cells and 1740 nM with Molt-4 cells.

For the molecule `CC1(C)CC(c2ccc(Cl)cc2)=C2CN3CCN(c4ccc(C(=O)NS(=O)(=O)c5ccc(NC[C@H]6CC[C@@](C)(O)CC6)c([N+](=O)[O-])c5)c(N5CCCOc6nc7[nH]ccc7cc65)c4)C[C@H]3COCCCO[C@@H]2C1` [Example 36, 4-((4aS,10aR)-14-(4-chlorophenyl)-12,12-dimethyl-1,2,4a,5,8,9,10a,11,13,15-decahydro-7H,12H-benzo[f]pyrazino[2,1-c][1,8]dioxa[4]azacycloundecin-3(4H)-yl)-2-(3,4-dihydro-2H-pyrrolo[3′,2′:5,6]pyrido[2,3-b][1,4]oxazepin-1(7H)-yl)-N-((4-((((1s,4s)-4-hydroxy-4-methylcyclohexyl)methyl)amino)-3-nitrophenyl)sulfonyl)benzamide], the figures for the EC50 with RS4;11 cells and in the assay with Molt-4 cells were 1.47 nM and 117 nM, respectively.

As a reminder, the EC50 is the concentration at which the effect is half-maximal. Read a high EC50 as a less potent agent.
